Some test systems named below: HS 578T breast; BT-549 breast; NCI/ADR-RES ovarian; UACC-62 melanoma; SN12C renal; RXF 393 renal; UO-31 renal; HL-60(TB) leukemia; MDA-MB-435; A549 NSCLC.
What all share (experiment): inhibition of tumour cell growth, NCI panel, 48 h

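Briefly, cells in 96-well plates were exposed to five compound concentrations for 48 h, and endpoints were estimated by linear interpolation. TGI marks complete inhibition of growth.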 Where only a bound is given, the exact number is not on record here.

Turning to `COc1ccc(/[N+]([O-])=C/c2ccccc2OC(=S)S)cc1`, the TGI is greater than 100 µM in the assay with HS 578T breast; 66.6 µM with BT-549 breast; 94.9 µM in the assay on NCI/ADR-RES ovarian; greater than 100 µM in the assay on UACC-62 melanoma; 56.9 µM in the assay with SN12C renal; greater than 100 µM with RXF 393 renal. In addition, the TGI is greater than 100 µM in the assay with UO-31 renal, 70.8 µM with HL-60(TB) leukemia, 55.7 µM in the assay on MDA-MB-435 and greater than 100 µM in the assay with A549 NSCLC.
Consider `O=C1c2sccc2C(=O)c2c(CO)csc21`, for which the TGI in the assay on HS 578T breast is 33.7 µM; in the assay with BT-549 breast, 12 µM; in the assay with NCI/ADR-RES ovarian it was 19.1 µM; in the assay with UACC-62 melanoma it was 5.67 µM; in the assay on SN12C renal it was 22.4 µM; in the assay with RXF 393 renal it was 3.22 µM. Also, the TGI in the assay with UO-31 renal was 26.2 µM; in the assay on HL-60(TB) leukemia it was 6.08 µM; in the assay with MDA-MB-435, 4.62 µM; with A549 NSCLC, 6.7 µM.
With `CCOC(=O)C(NC(=O)c1cccc(Cl)c1)(N1CCN(c2cc3c(cc2F)c(=O)c(C(=O)O)cn3CC)CC1)C(F)(F)F` (configuration not stated), the TGI was 44.8 µM with HS 578T breast; 43.7 µM with BT-549 breast; greater than 100 µM with NCI/ADR-RES ovarian; 32.4 µM in the assay on UACC-62 melanoma; 70.9 µM in the assay on SN12C renal; 39.4 µM with RXF 393 renal. Also, the TGI in the assay on UO-31 renal was found to be 46.6 µM; in the assay on HL-60(TB) leukemia, 20.1 µM; in the assay with MDA-MB-435 it was 28 µM; in the assay with A549 NSCLC, 64.2 µM.
As for `CN1Cc2c(ccc3c2OCO3)[C@@H]2[C@H](O)Cc3cc4c(cc3[C@@H]21)OCO4`, the TGI with HS 578T breast is greater than 100 µM; in the assay with BT-549 breast it was greater than 100 µM; in the assay with NCI/ADR-RES ovarian, greater than 100 µM; in the assay with UACC-62 melanoma, greater than 24 µM; in the assay with SN12C renal, greater than 39.7 µM; in the assay on RXF 393 renal it was greater than 26.2 µM. For the same compound, the TGI in the assay with UO-31 renal is greater than 100 µM; with HL-60(TB) leukemia, 4.36 µM; with MDA-MB-435, 2.53 µM; in the assay with A549 NSCLC it was greater than 100 µM.
In the case of `CC(=O)Oc1cc(OC(C)=O)c2c(c1C)CC[C@@H]1[C@@H]2CC[C@]2(C)[C@@H](OC(C)=O)CC[C@@H]12`, the TGI with HS 578T breast is 53.2 µM; with BT-549 breast, 34.1 µM; in the assay with NCI/ADR-RES ovarian it was 57.6 µM; in the assay on UACC-62 melanoma, 34.7 µM; in the assay on SN12C renal it was 33.7 µM; with RXF 393 renal, 27.7 µM. The TGI is 31.4 µM with UO-31 renal, 54.6 µM in the assay with HL-60(TB) leukemia, 31.3 µM with MDA-MB-435 and 34.7 µM in the assay with A549 NSCLC.
On to `Clc1cc2ncn(C3CCCO3)c2cc1Cl` (configuration not stated), for which the TGI in the assay on HS 578T breast was greater than 100 µM; in the assay with BT-549 breast, 86.4 µM; with NCI/ADR-RES ovarian, greater than 100 µM; with UACC-62 melanoma, greater than 100 µM; in the assay on SN12C renal it was greater than 100 µM; with RXF 393 renal it was greater than 100 µM. Besides, the TGI in the assay on UO-31 renal is 53.6 µM; in the assay on HL-60(TB) leukemia it was greater than 100 µM; in the assay with MDA-MB-435, greater than 100 µM; in the assay with A549 NSCLC it was greater than 100 µM.
Consider `C(/Cc1ccc2c(c1)OCO2)=N\NC1=NCCCCN1`, for which the TGI with HS 578T breast, with BT-549 breast, in the assay with NCI/ADR-RES ovarian, in the assay with UACC-62 melanoma, in the assay with SN12C renal and with RXF 393 renal was greater than 100 µM in each case. Moreover, the TGI with UO-31 renal, in the assay with HL-60(TB) leukemia, in the assay on MDA-MB-435 and in the assay on A549 NSCLC was greater than 100 µM throughout.
`CCN(CC)CCCNc1nnc(C)c2[nH]c3ccccc3c12`: the TGI was 38 µM with HS 578T breast; 68 µM in the assay on BT-549 breast; greater than 100 µM in the assay with NCI/ADR-RES ovarian; 27.9 µM with UACC-62 melanoma; 43 µM in the assay on SN12C renal; 38.8 µM in the assay on RXF 393 renal. Further, the TGI in the assay with UO-31 renal was greater than 100 µM; in the assay with HL-60(TB) leukemia, 27.4 µM; in the assay with MDA-MB-435 it was 25.9 µM; in the assay with A549 NSCLC it was 53 µM.
Take `CCOC(=O)c1c(SCCN(CC)CC)n(-c2ccccc2)c(=S)n(-c2ccccc2)c1=O`: the TGI was 28 µM with HS 578T breast; 18.6 µM with BT-549 breast; greater than 100 µM with NCI/ADR-RES ovarian; 9.1 µM with UACC-62 melanoma; 3.4 µM with SN12C renal; 3.28 µM with RXF 393 renal. In addition, the TGI in the assay with UO-31 renal turned out to be 3.12 µM; in the assay on HL-60(TB) leukemia, 3.61 µM; in the assay on MDA-MB-435, 4.81 µM; in the assay on A549 NSCLC it was 9.42 µM.
On to `CCc1n[nH]c(=O)n1-c1ccncc1`, for which the TGI with HS 578T breast, in the assay with BT-549 breast, in the assay with NCI/ADR-RES ovarian, in the assay with SN12C renal, in the assay with RXF 393 renal and in the assay with UO-31 renal was greater than 100 µM throughout. Also, the TGI with HL-60(TB) leukemia, in the assay on MDA-MB-435 and in the assay with A549 NSCLC was greater than 100 µM in each case.
Consider `Nc1nc(Nc2cc(F)c(Cl)c(F)c2)cc(=O)[nH]1`, for which the TGI with HS 578T breast is 66.5 µM; in the assay with BT-549 breast, greater than 100 µM; with NCI/ADR-RES ovarian, greater than 100 µM; in the assay on UACC-62 melanoma it was greater than 100 µM; in the assay on SN12C renal it was greater than 100 µM; with HL-60(TB) leukemia, greater than 100 µM. The TGI in the assay on MDA-MB-435 and with A549 NSCLC was greater than 100 µM throughout.
`Nc1c(/C=C/c2cc3cc(C4=NCCN4)ccc3o2)[nH]c2cc(C3=NCCN3)ccc12`: the TGI in the assay on HS 578T breast, with BT-549 breast, in the assay on NCI/ADR-RES ovarian, with UACC-62 melanoma, in the assay on SN12C renal and in the assay with RXF 393 renal was greater than 100 µM in each case. Besides, the TGI in the assay on UO-31 renal, in the assay with HL-60(TB) leukemia, in the assay with MDA-MB-435 and with A549 NSCLC was greater than 100 µM in each case.
For the compound `O=C1Cc2c(-c3ccccc3)cc(-c3ccc(Cl)cc3)nc2-c2ccccc2N1`, the TGI in the assay on HS 578T breast was 11.8 µM; with BT-549 breast, 40.2 µM; in the assay on NCI/ADR-RES ovarian, 14.8 µM; in the assay on UACC-62 melanoma, greater than 31 µM; with SN12C renal, 16.9 µM; in the assay with RXF 393 renal, 17.3 µM. For the same compound, the TGI with UO-31 renal was 7.31 µM; in the assay on HL-60(TB) leukemia, greater than 100 µM; in the assay with MDA-MB-435 it was greater than 45.7 µM; in the assay on A549 NSCLC, 35.3 µM.
In the case of `COc1ccc2c(C=O)c3n(c(=O)c2c1OC)CCc1cc2c(cc1-3)OCO2`, the TGI was greater than 100 µM with HS 578T breast; greater than 100 µM in the assay on BT-549 breast; greater than 100 µM in the assay on NCI/ADR-RES ovarian; greater than 100 µM in the assay on UACC-62 melanoma; greater than 100 µM in the assay on SN12C renal; 11.3 µM with RXF 393 renal. The TGI in the assay on UO-31 renal, in the assay with HL-60(TB) leukemia, in the assay with MDA-MB-435 and in the assay on A549 NSCLC was greater than 100 µM each time.

Source of the values: PubChem BioAssay (NCI).
